Measured values: patent US11859252B2, “Diagnostic and therapeutic methods for cancer” (Genentech, Inc., priority 2017, dated 2024)
“Also recorded” adds a separate entry of the source.

Assays:
[1] = system: pEGFR; assay: Immunoblot of pEGFR after cobimetinib; format: cell-based; conditions: cobimetinib 250 nM, 24 hours; FIG. 6K
Experimental: (§1) Cells lysed in lysis buffer (0.5% NP40, 20 mM Tris, pH 7.5, 137 mM NaCl, 10% glycerol, 1 mM EDTA) plus protease inhibitor mixture-complete mini (Roche Applied Science, 11836170001) and phosphatase inhibitor mix (Thermo, 78426). Lysates were centrifuged at 15,000 rpm for 10 minutes and the protein concentration determined using BCA (Thermo, 23227). Equal amounts of protein were subjected to SDS-PAGE NuPAGE 4-12% Bis-Tris Gel (Novex, WG-1403) and transferred to nitrocellulose membrane (BioRad, 170-4159). After blocking in blocking buffer (Li-Cor, 927-40000), membranes were incubated with the indicated primary antibodies and analyzed either by the addition of secondary antibodies IRDye 680LT Goat anti-Mouse IgG (H+L) (Li-Cor, 926-68050) or IRDye 800CW goat anti-Rabbit IgG (H+L) (Li-Cor, 926-32211). The membranes were visualized on the LiCor Odyssey CLx Scanner.

[2] = system: RAS-GTP; assay: Ras activity assay (RAF1-RBD pull-down); format: cell-based
Experimental: Levels of active GTP-loaded Ras were determined by GST-Raf-RBD pull-down assay (Thermo Scientific, 16117). In brief, GST-Raf-RBD fusion proteins were incubated with glutathione beads, and cells were collected in lysis buffer as recommended by the manufacturer. The cell lysates were incubated with the GST-Raf-RBD immobilized beads for 1.5 hours at 4° C. Bound proteins were eluted with SDS sample buffer and analyzed by Western blot.

[3] = system: BRAF-CRAF heterodimer; assay: CRAF immunoprecipitation (RAF dimerization); format: cell-based
Experimental: (§2) Cells were plated and lysed as described in immunoblotting method. Cell lysates were incubated with anti-CRAF (Millipore 07-396) or anti-BRAF antibody (Millipore 07-453) and 50 μl of Protein A agarose beads (Millipore 16-125) for 2 h at 4° C. After washing with lysis buffer plus protease and phosphatase inhibitor mixtures, protein A beads were incubated with 0.4 μg of unactive MEK1 (Millipore 14-420) in 40 μl of kinase buffer (20 mM MOPS, pH 7.2, 25 mM β-glycerol phosphate, 5 mM EGTA, 1 mM sodium orthovanadate, 1 mM DTT, 120 μM ATP, 18 mM MgCl2) for 30 min at 30° C. Samples were then analyzed by Western blot.

[4] = system: A549 cells; assay: Clonogenic (colony growth) assay; format: cell-based; conditions: 8-day clonogenic; 50-100 nM cobimetinib, 100 nM AZ-628
Experimental: Cells were plated in duplicate in 6-well plates at 10,000 cells/well, allowed to attach overnight and treated for 8 days with the indicated compounds. Media with appropriate compounds was replenished every 72 hours. At 8 days cells were rinsed once with PBS, fixed and stained with crystal violet solution (Sigma Aldrich, HT90132) for 20 minutes and washed with water.

[5] = system: pMEK; assay: Immunoblot of pMEK after cobimetinib in KRAS mutant and wild-type cell lines; format: cell-based; conditions: for pMEK levels after treatment: cobimetinib 24 hours
Experimental: as §1

[6] = system: HCT116 colon xenograft tumor; assay: HCT116 colon xenograft tumor model; conditions: HCT116; LY-3009120 25 mg/kg IP QD; cobimetinib 5 mg/kg PO QD; FIG. 3A
Experimental: The formulations were mixed well by vortexing before dosing. Test articles were stored in a refrigerator set to maintain a temperature range of 4° C.-7° C.
Only animals that appeared to be healthy and that were free of obvious abnormalities were used for each study. Tumor volumes were determined using digital calipers (Fred V. Fowler Company, Inc.) using the formula (L×W×W)/2. […] Mice were weighed twice a week using a standard scale.

[7] = system: A549 KRAS-mutant lung cancer cell line; assay: Tool compound combination screen with AZ-628; format: cell-based; conditions: 1 μM AZ-628 versus DMSO, FIG. 1D-1E
Experimental: A compound library comprising 480 compounds arrayed in 9-point dose response was screened in the absence or presence of a fixed dose of either AZ-628 or DMSO in A549 cells. A549 cells were seeded into 384 well plates, and compound was added 24 h later. Cell viability was determined 120 h post-compound addition (CellTiter Glo). Curves were fitted, and both IC50 and mean viability metrics were calculated. The IC50 is the dose at which inhibition is 50% relative to untreated wells. The mean viability is the average of the fitted viabilities at each tested dose. Mean viability is equivalent to the area under the log-dose/viability curve divided by the total number of tested doses. All data were fitted using Genedata Screener (GDS) software. The combination metric was the difference in mean viability between the AZ-628 treated arm and the DMSO treated arm for each compound.

[8] = target: T1, RAF dimers (Homo sapiens, UniProt P04049+P15056); assay: In vitro kinase assay of immunoprecipitated RAF with unactive MEK; format: biochemical
T1 construct: Cobimetinib-induced RAF dimers were immunoprecipitated from A549 cells; endogenous in cells; A549, H2122 and HCT116 for cobimetinib induction
T1 sequence (P04049 whole entry): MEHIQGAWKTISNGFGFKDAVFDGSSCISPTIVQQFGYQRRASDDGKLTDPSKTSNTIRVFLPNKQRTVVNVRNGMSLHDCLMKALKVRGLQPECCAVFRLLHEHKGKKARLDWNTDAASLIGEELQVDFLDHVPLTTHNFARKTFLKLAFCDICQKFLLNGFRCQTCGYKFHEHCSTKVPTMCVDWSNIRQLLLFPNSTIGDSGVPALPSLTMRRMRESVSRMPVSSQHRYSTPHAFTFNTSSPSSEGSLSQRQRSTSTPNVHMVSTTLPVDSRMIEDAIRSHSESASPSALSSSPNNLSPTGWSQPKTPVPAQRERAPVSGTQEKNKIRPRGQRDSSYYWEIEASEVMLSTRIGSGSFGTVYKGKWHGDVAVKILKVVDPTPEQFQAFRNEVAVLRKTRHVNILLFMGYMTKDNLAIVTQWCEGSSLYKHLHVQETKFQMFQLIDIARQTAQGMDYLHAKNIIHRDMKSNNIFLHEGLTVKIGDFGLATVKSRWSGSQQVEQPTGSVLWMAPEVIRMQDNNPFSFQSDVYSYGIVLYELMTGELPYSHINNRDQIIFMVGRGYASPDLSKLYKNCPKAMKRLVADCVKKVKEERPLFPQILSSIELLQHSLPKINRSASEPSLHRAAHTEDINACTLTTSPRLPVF
T1 sequence (P15056 2-766 limits assumed): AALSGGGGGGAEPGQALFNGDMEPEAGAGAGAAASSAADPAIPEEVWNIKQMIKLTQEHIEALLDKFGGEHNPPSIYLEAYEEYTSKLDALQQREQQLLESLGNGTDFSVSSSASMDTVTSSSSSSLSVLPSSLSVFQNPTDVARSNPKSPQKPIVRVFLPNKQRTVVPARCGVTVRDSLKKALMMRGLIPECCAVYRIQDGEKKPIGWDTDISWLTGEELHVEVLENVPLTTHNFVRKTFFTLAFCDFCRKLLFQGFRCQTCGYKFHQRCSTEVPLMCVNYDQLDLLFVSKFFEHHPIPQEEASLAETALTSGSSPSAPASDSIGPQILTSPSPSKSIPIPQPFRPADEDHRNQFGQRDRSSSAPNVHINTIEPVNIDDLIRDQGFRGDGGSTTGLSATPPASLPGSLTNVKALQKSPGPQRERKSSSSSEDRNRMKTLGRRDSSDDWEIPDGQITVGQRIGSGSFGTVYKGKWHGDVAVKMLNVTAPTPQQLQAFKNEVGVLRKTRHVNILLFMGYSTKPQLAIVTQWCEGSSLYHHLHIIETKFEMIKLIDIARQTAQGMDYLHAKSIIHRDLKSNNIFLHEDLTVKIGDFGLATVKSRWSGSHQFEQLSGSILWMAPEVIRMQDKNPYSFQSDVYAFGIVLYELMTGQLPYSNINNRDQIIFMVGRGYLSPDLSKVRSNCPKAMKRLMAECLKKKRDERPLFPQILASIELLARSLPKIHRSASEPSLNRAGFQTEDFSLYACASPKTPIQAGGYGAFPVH
Experimental: as §2

[9] = system: NRAS mutant melanoma cell line; assay: Viability of NRAS mutant melanoma versus BRAF-V600E and wild-type lines; format: cell-based; conditions: separate study; FIGS. 8C and 8D
Experimental: Compounds were screened in nine-point dose response using a three-fold dilution. Cells were seeded into 384-well plates 24 hours prior to compound addition. Cells were then incubated with compound for 72 hours or 120 hours before assaying viability (CellTiter-Glo, Promega). Assays were performed in biological triplicate. […] Mean viability is equivalent to the area under the log-dose/viability curve divided by the total number of tested doses.

[10] = system: KRAS mutant syngeneic CRC xenograft model CT26; assay: CT26 tumor growth model; format: in vivo; conditions: 5 mg/kg each orally once a day, 21 days, vs either agent alone, FIGS. 5F-5G
[11] = system: pMEK, pERK, pRSK, pAKT; assay: Immunoblot of pathway markers after compound treatment; format: cell-based; conditions: A549 and HCT-116; 1 μM HM95573, 250 nM cobimetinib; FIGS. 5D-5E
Experimental: as §1

[12] = system: 196 lung, colon, skin, and ovarian cancer cell lines; assay: 196 cell line screen, HM95573 and cobimetinib co-dilution; format: cell-based
Experimental: Compounds were screened in nine-point dose response using a three-fold dilution. Cells were seeded into 384-well plates 24 hours prior to compound addition. Cells were then incubated with compound for 72 hours or 120 hours before assaying viability (CellTiter-Glo, Promega). Assays were performed in biological triplicate. Cells were incubated (37° C., 5% CO2) in RPMI-1640, 2.5% FBS (72 hour assay) or 5% FBS (120 hour assay), and 2 mM glutamine throughout the assay. The reported IC50 and mean viability metrics are as follows: IC50 is the dose at which the estimated inhibition is 50% relative to untreated wells (i.e., absolute IC50). Mean viability is equivalent to the area under the log-dose/viability curve divided by the total number of tested doses.
For combination synergy studies, cells were plated in 384-well plates (Corning) and treated with varying concentrations of compound, either alone or in combination for 72 hours. Cell viability was determined using CellTiter-Glo Luminescent Cell Viability Assay (Promega, G7573). Synergistic effects were determined using the Bliss independence analysis methods (Greco et al. Pharmacol. Rev. 47: 331-385, 1995; Chou and Talalay. Adv. Enzyme Regul. 22:27-55, 1984; Chou. Cancer Res. 70: 440-446, 2010; Bliss. Ann. Appl. Biol. 25: 31, 1939).

## O=C(c1ccc(F)c(F)c1Nc1ccc(I)cc1F)N1CC(O)([C@@H]2CCCCN2)C1 [cobimetinib]
[1]
  EGFR activation (pEGFR levels): little evidence of EGFR activation
[2]; KRAS mutant lines, cobimetinib treatment, FIG. 4A
  RAS-GTP levels: elevated RAS-GTP levels at baseline and upon cobimetinib treatment; also recorded: increased RAS-GTP levels
[2]; panel of colorectal cancer cell lines, FIG. 5I
  active RAS-GTP in response to treatment: Only cell lines showing synergy showed increased active RAS-GTP in response to cobimetinib treatment
[3]; A549, dose-dependent, FIG. 4E
  concentration at which BRAF-CRAF heterodimer formation and increase in kinase activity occur: 50 to 100 nM
[3]; KRAS mutant cell lines (A549, H2122, and HCT116), FIG. 4A
  BRAF co-immunoprecipitation with CRAF: BRAF strongly co-immunoprecipitated with CRAF
[4]
  single-agent effect on cell growth: had little effect on cell growth on their own
[5]; KRAS mutant vs KRAS wild-type cells, FIG. 4A
  pMEK levels after treatment: an increase in the pMEK levels in the KRAS mutant cells but not the KRAS wild-type cells
[5]; synergistic vs non-synergistic colon and lung lines, FIGS. 4B-4D
  pMEK levels after treatment: an increase in the pMEK levels in the KRAS mutant and wild-type synergistic cells but not the KRAS mutant and wild-type non-synergistic cells
[5]; colorectal cell lines, cobimetinib 250 nM, 24 hr, FIG. 6E
  induction of pMEK, KRAS-G13D vs non-KRAS-G13D: stronger induction of pMEK in G13D cell lines; also recorded: more enhanced induction of pMEK following MEK inhibition relative to other KRAS mutants
[6]
  tumor growth, single agent: modestly inhibited tumor growth
[7]
  hit ranking / mean viability difference with AZ-628: top hit; also recorded: scored highest among the compounds tested
[8]; KRAS mutant cell lines, vs DMSO, FIG. 4A
  kinase activity of RAF dimers after treatment: highly active
[8]; colorectal lines with or without synergy, cobimetinib, FIG. 5B-5C
  pMEK levels in in vitro RAF kinase assay: strong increases in pMEK levels after cobimetinib treatment were observed, primarily in the lines showing synergy
[9]
  cell viability and 1050, NRAS mutant vs BRAF-V600E: showed greater efficacy in the BRAF-V600E cell line relative to the NRAS mutant cell line

## Cc1ccc2c(Nc3cccc(Cl)c3F)nccc2c1NC(=O)c1csc2c(N)ncnc12 [HM95573]
[10]
  tumor growth inhibition (TGI), combination with cobimetinib: improved tumor growth inhibition (TGI) in vivo
[11]
  combination activity with cobimetinib on pMEK, pERK, pRSK: combination activity was also observed; also recorded: combination activity is observed
[12]; HM95573 and cobimetinib, colorectal and lung lines, FIG. 6D
  association of combination sensitivity with KRAS-G13D: This trend was most evident in colorectal cancer lines
[12]; co-dilution with cobimetinib, three days, FIG. 5H
  synergy score (positive Bliss excess) with cobimetinib by genotype: significantly higher synergy scores were observed in RAS mutant cell lines compared to either BRAF-V600 mutants or wild-type; also recorded: greater synergy in RAS mutant cell lines and a subset of RAS/RAF wild-type cell lines relative to BRAF-V600 cell lines
